# Reference: US20220273628A1, “EFFECTS OF LYSERGIC ACID DIETHYLAMIDE (LSD) AND OF LSD ANALOGS TO ASSIST PSY[…] G[…] DISORDER OR OTHER ANXIETY NOT RELATED TO LIFE-T[…]” (Universitätsspital Basel, priority 2021, published 2022)
# Tests used:
# [1] = system: patients with anxiety disorder without somatic illness; test: Same phase II study: acute alterations of mind (5D-ASC) and mystical-type effects (MEQ30); format: in vivo, human
# Protocol: Each of the four LSD/Placebo sessions lasted 12 hours from 8 AM to 8 PM. Sessions took place in a quiet room at the Ambulatory Study Center of the University Hospital Basel (Basel center) or in the private practice office of Dr. P. Gasser (Solothurn center). At the beginning of the session, current mood and mental state were discussed and a urine drug screen was taken and any AEs since the last visit were recorded. Any open questions or concerns were addressed by the investigator. The participants were advised to lie in a bed or sit comfortably on a chair. Other than going to the bathroom, the participants remained in the treatment room for the entire 12-hour experimental session and were supervised constantly up to 8-12 hours after LSD/placebo administration depending on the participant's response and as needed. The subjective effects of LSD at the dose used in this study were expected to last 8-12 hours (Gasser et al., 2014; Holze et al., 2021; Schmid et al., 2015). […] During the LSD/placebo effect, the participants were instructed to focus their awareness inward. Subjects were encouraged to wear eye shades during the first hours (or the light was dimmed) as well as to listen to music and discussions/talking much with the investigator were discouraged. Subjects were allowed to remain mostly undisturbed with brief physical contacts every two hours when heart rate and blood pressure were measured. At the end of the sessions, 10-12 hours after LSD/placebo administration, the acute subjective peak effects were retrospectively rated by the participants using the 5D-ASC, SCQ, AMRS, and VASs and the experience was discussed. Ten-twelve hours after LSD/placebo administration the participants were allowed to return to their home with company and supervision provided by the partner, a relative, or a friend. […]
# The 5 dimensions of altered states of consciousness (5D-ASC) scale is a visual analog scale consisting of 94 items (Dittrich, 1998; Studerus et al., 2010). […] Each item of the scale was scored on a 0-100 mm VAS. […]
# healthy participants = settings: in vivo; cited from earlier work
# [2] = 200 μg oral, cited from earlier work
# [3] = drinking solution (water/alcohol) in dark glass vials; cited from earlier work
# [4] = system: patients with anxiety disorder without somatic illness; test: Randomized, double-blind, placebo-controlled phase II cross-over study of LSD: ratings of anxiety, depression and psychological distress; format: in vivo, human
# Protocol: Specifically, in patients with generalized anxiety disorder, LSD or placebo was administered in double-blind manner in two sessions separated by 6 weeks and anxiety, depression and psychological distress were assessed between sessions, 2, 8, and 16 weeks after the second session. Then patients who received LSD crossed over to placebo and vice versa.
# The examples study used a double-blind cross-over design with two treatment sequences each lasting 24 weeks (LSD vs. placebo-assisted psychotherapy) and separated by a […] between-sequence period. Order was counter-balanced and random. Each participant served as its own control over the 52-weeks total study duration. Treatment effects are also compared between subjects for the first 24 week study period before the cross-over.
# Each of the four LSD/Placebo sessions lasted 12 hours from 8 AM to 8 PM. Sessions took place in a quiet room at the Ambulatory Study Center of the University Hospital Basel (Basel center) or in the private practice office of Dr. P. Gasser (Solothurn center). At the beginning of the session, current mood and mental state were discussed and a urine drug screen was taken and any AEs since the last visit were recorded. Any open questions or concerns were addressed by the investigator. The participants were advised to lie in a bed or sit comfortably on a chair. Other than going to the bathroom, the participants remained in the treatment room for the entire 12-hour experimental session and were supervised constantly up to 8-12 hours after LSD/placebo administration depending on the participant's response and as needed. The subjective effects of LSD at the dose used in this study were expected to last 8-12 hours (Gasser et al., 2014; Holze et al., 2021; Schmid et al., 2015). […] During the LSD/placebo effect, the participants were instructed to focus their awareness inward. Subjects were encouraged to wear eye shades during the first hours (or the light was dimmed) as well as to listen to music and discussions/talking much with the investigator were discouraged. Subjects were allowed to remain mostly undisturbed with brief physical contacts every two hours when heart rate and blood pressure were measured. At the end of the sessions, 10-12 hours after LSD/placebo administration, the acute subjective peak effects were retrospectively rated by the participants using the 5D-ASC, SCQ, AMRS, and VASs and the experience was discussed. Ten-twelve hours after LSD/placebo administration the participants were allowed to return to their home with company and supervision provided by the partner, a relative, or a friend. If supervision was not available or if effects persisted, the night was spent at the study site.
# The STAI is a widely used self-report instrument for assessing anxiety in adults. It includes separate measures of state and trait anxiety (Spielberger et al., 1983). The STAI evaluates the essential qualities of feelings of apprehension, tension, nervousness, and worry. The STAI differentiates between the temporary condition of state anxiety and the more general and long-standing quality of trait anxiety. The STAI state anxiety subscale asks for feelings at the moment of filling out the questionnaire, and the STAI trait anxiety subscale ask subjects to indicate how they generally view themselves. For both subscales, scores from 20 to 39 represent mild anxiety, and scores from 40 to 59 indicated moderate anxiety, whereas scores from 60 to 80 indicated severe anxiety. Both the state and trait STAI are commonly used as outcome measures in studies in patients with anxiety disorder (Fisher et al., 1999; Laakmann et al., 1998). A global STAI score can be derived by adding up the state and trait anxiety scale scores (range: 40-160 points). Similar to the pilot study both STAI scale scores were used to determine study inclusion at the screening visit (Gasser et al., 2014; Gasser et al., 2015). […]
# 5-HT1 receptors = settings: cited from earlier work
# [5] = between-subjects, after the first session, p=0.04
# [6] = between-subjects, week 10 (2 weeks after the second dose), p=0.002
# [7] = between-subjects, weeks 16 and 24, did not reach statistical significance
# [8] = within-subjects, 2 weeks after the second administration, p=0.003
compound,measurement,setting,value
"CCN(CC)C(=O)[C@@H]1C=C2c3cccc4[nH]cc(c34)C[C@H]2N(C)C1 [LSD, lysergic acid diethylamide]",ratings of mystical-type experiences on the MEQ30 questionnaire,"[1]; 200 μg vs placebo, similar at first and second session",significantly and strongly increased
same,alterations in all scales of the 5D-ASC questionnaire,"[1]; 200 μg, all p<0.001 vs. placebo, comparable at session 1 and 2",significant and marked alterations
same,acute effects (5D-ASC) compared with healthy subjects given the same dose,"[1]; 200 μg, comparison with Holze et al., 2021",generally greater
same,emotional empathy and prosociality,healthy participants,enhancing
same,recognition of fearful and sad faces,healthy participants,decreasing
same,time to maximal concentrations of LSD,[2]; 16 healthy subjects,1.5 h
same,half-life,[2]; first-order kinetics up to 12 hours,3.6 h
same,content-uniformity and stability of the formulation,[3],stability of the formulation throughout the entire study period was documented
same,"STAI-S, STAI-T, STAI-G, HDRS, BDI and SCL-90 Global scores compared with baseline","[4]; LSD condition only, 19 patients, 2 weeks after the second treatment session, p=0.006, 0.01, 0.03, 0.02, 0.03",reduced scores on all outcome measures significantly
same,STAI-S ratings compared with placebo,"[4]; between-subjects, first period, week 10 (2 weeks after the second dose), 200 μg per os, p=0.008",significantly reduced
same,STAI-S ratings compared with placebo,"[4]; between-subjects, after the first session, p=0.03",significantly reduced
same,HDRS scores compared with placebo,[4]; [5],already reduced scores
same,STAI-G ratings compared with placebo,[4]; [5],significantly reduced
same,STAI-T ratings compared with placebo,"[4]; between-subjects, week 10 (2 weeks after the second dose), p=0.001",significantly reduced
same,HDRS scores compared with placebo,[4]; [6],significantly reduced
same,STAI-G ratings compared with placebo,[4]; [6],significantly reduced
same,SCL-90 Global scores compared with placebo,"[4]; between-subjects, week 10, p=0.004",significantly reduced
same,BDI scores compared with placebo,"[4]; between-subjects, week 10, p=0.02",significantly reduced
same,SCL-90 Global compared with placebo,"[4]; between-subjects, week 16 and week 24, did not reach statistical significance",remained reduced
same,STAI-S ratings compared with placebo,"[4]; between-subjects, weeks 16 and 24 (8 and 16 weeks after the second dose), did not reach statistical significance",continued to be reduced
same,STAI-G ratings compared with placebo,[4]; [7],continued to be reduced
same,STAI-T ratings compared with placebo,[4]; [7],continued to be reduced
same,"STAI-S symptom score, difference from baseline, compared with placebo","[4]; within-subjects (19 patients), 2 weeks after the second administration, p=0.01",significantly reduced
same,"BDI symptom score, difference from baseline, compared with placebo","[4]; within-subjects, 2 weeks after the second administration, p=0.002",significantly reduced
same,"STAI-G symptom score, difference from baseline, compared with placebo",[4]; [8],significantly reduced
same,"STAI-T symptom score, difference from baseline, compared with placebo",[4]; [8],significantly reduced
same,"SCL-90 Global symptom score, difference from baseline, compared with placebo","[4]; within-subjects, 2 weeks after the second administration, p=0.004",significantly reduced
same,"HDRS symptom score, difference from baseline, compared with placebo","[4]; within-subjects, 2 weeks after the second administration, p=0.03",significantly reduced
same,activity at 5-HT1 receptors,5-HT1 receptors,stimulates
